# In ChEMBL document CHEMBL1136630, “Cancer chemotherapy: a SN-38 (7-ethyl-10-hydroxycamptothecin) glucuronide prodrug for treatment by a PMT (Prodrug MonoTherapy) strategy” (Bioorg Med Chem Lett, 2003):
# Experiments:
# [1] = tested on: HT-29; experiment: In vitro inhibitory concentration required against HT-29 human colon cancer cells; format: functional, cell-based
# [2] = Half-life time was determined; format: ADME
# [3] = tested on: HT-29; experiment: In vitro inhibitory concentration required against HT-29 human colon cancer cells in the presence of beta-D-glucuronidase; format: functional, cell-based
Compound,IC50 [1],half-life [2],IC50 [3]
CCc1c2c(nc3ccc(O)cc13)-c1cc3c(c(=O)n1C2)COC(=O)[C@]3(O)CC [7-ETHYL-10-HYDROXYCAMPTOTHECIN],27.3 nM,,
CCc1c2c(nc3ccc(OC(=O)N(C)c4cc([N+](=O)[O-])ccc4OC4CC(C(=O)O)C(O)C(O)C4O)cc13)C1CC3=C(COC(=O)[C@]3(O)CC)C(=O)N1C2 (some centres undefined),1980 nM,12.7 min,26 nM
